Patent US20080234188A1, “Antimicrobial Peptides” (The Hospital for Sick Children, priority 2001, published 2008)
Values after ≈ are worked out from the molar mass of the structure shown. Where a SMILES comes first, the peptide text is derived from it.

Legend:
[1] = system: Corynebacterium xerosis (C875); type: cell-based; conditions: for MIC C875 (active/inactive): Table 2, class symbols; as to MIC C875 (active/inactive): key: + = active, not quantitated; − = inactive
Text: (§1) The bacterial strains used were E. coli C498, E. coli C500, Escherichia coli UB1005 and its antibiotic supersusceptible derivative DC2 (22); a clinical isolate of Staphylococcus epidermidis (C621); coryneform bacterial strain Corynebacterium xerosis (C875); and E. coli ATCC 25922, Staphylococcus aureus ATCC 25923, Enterococcus faecalis ATCC 29212, Bacillus subtilis ATCC 6633 and Pseudomonas aeruginosa ATCC 27853, all from American Type Culture Collection.
(§2) Peptide antibacterial activity was assessed by the method of R. Hancock et al. (Wu & Hancock (1999), J. Biol. Chem., v. 274, pp. 29-35). Test strains of bacteria from Mueller Hinton agar (MHA) plates were inoculated into 5 ml Mueller Hinton Broth (MHB) in tubes and grown overnight at 37° C. on a shaker (180 rpm). Serial dilutions of test peptides (at 10 times the required test concentrations) were made in 0.01% acetic acid, 0.2% BSA, in polypropylene or coated glass tubes as follows: the test peptide was (a) dissolved in distilled water at 20 times the required maximum concentration (enough final volume for all tests to be performed on a given day); (b) diluted into an equal volume of 0.02% acetic acid, 0.4% BSA to give 10 times the required maximum concentration; (c) serial doubling dilutions were performed in 0.01% acetic acid, 0.2% BSA to provide serial dilutions of peptides at 10 times the required test concentrations, e.g., 640, 320, 160, . . . 2.5 μg/ml. (No deleterious effects of long-term storage of peptides in these media have been detected). Overnight bacterial cultures were diluted in MHB to give 2−7×10^5 colony forming units/ml. Bacterial suspension (100 μl) was dispensed in each well; controls without bacteria were maintained in parallel. To each well was added 11 μl of 10× test peptide and plates were incubated at 37° C. for 18-24 hours, and checked again at 40-48 hours. Plates were read visually and at 600 nm in a microplate reader (Molecular Devices).
(§3) were synthesized. The antibacterial activity of these peptides was determined against both Gram-positive bacteria ([…], Corynebacterium xerosis) and Gram-negative bacteria (various strains of E. coli). The results are shown in Table 2, along with the average hydrophobicity of each peptide, calculated as described herein.
(§4) A further number of the peptides of the invention were tested for antimicrobial activity against a range of Gram-positive and Gram-negative bacteria by the assay described immediately before Example 1.

[2] = system: Staphylococcus epidermidis (C621); type: cell-based; conditions: for MIC C621 (active/inactive): Table 2, class symbols; as to MIC C621 (active/inactive): key: + = active, not quantitated; − = inactive
Text: as §1, §2, §3, §4

[3] = system: E. coli DC2; assay: Assay of antibacterial activity (MIC), E. coli DC2; type: cell-based, Escherichia coli
Text: as §1, §2, §4

[4] = system: E. coli UB1005; type: cell-based, Escherichia coli; conditions: UB1005
Text: as §1, §2, §4

[5] = system: E. coli ATCC25922; type: cell-based
Text: as §1, §2, §4

[6] = system: P. aeruginosa ATCC27853; type: cell-based, Pseudomonas aeruginosa
Text: as §1, §2, §4

[7] = system: Human RBC; type: cell-based
Method: (§5) Erythrocytes from heparinized rabbit or human blood were washed three times with phosphate-buffered saline (PBS; 5 mM phosphate buffer, 0.14 M saline, pH 7.3), and centrifuged at 1000×g for 15 min at 4° C. The erythrocytes were diluted with PBS to 4% (v/v). Dilutions of the peptides in PBS were plated in 100 μl volumes in microtitre plates (Costar 3790, polypropylene) together with 100μl of the erythrocyte suspension. PBS was used as control and 100% lysis was determined in 0.1% Triton X-100. The plates were incubated at 37° C. for 1 h and then centrifuged at 1000×g for 5 min. 100 μl aliquots of the supernatant were transferred to microtitre plates (Nunc, polystyrene), and the release of hemoglobin was monitored by measurement of the absorbance at 540 nm in a microplate reader. The results are shown in Table 6, for peptide concentrations of […]. With only one or two exceptions, little or no hemolysis was seen.

[8] = system: Rabbit RBC; type: cell-based
Method: as §5

[9] = system: C498: E. coli, wild type strain; type: cell-based; conditions: for MIC C498 (active/inactive): Table 2, class symbols; as to MIC C498 (active/inactive): key: + = active, not quantitated; − = inactive
Text: as §1, §2, §3

[10] = system: C500: E. coli, antibiotic strain; type: cell-based; conditions: for MIC C500 (active/inactive): Table 2, class symbols; as to MIC C500 (active/inactive): key: + = active, not quantitated; − = inactive
Text: as §1, §2, §3

[11] = Hydrophobicity (hydropathy) from reverse-phase HPLC retention scale; type: physicochemical; parameters: key to Average Hydrophobicity of Core Sequence / Mean Core segment Hydrophobicity: arithmetic average of Table 1 hydropathy values of constituent residues; key to Hydropathy: hydropathy scale from HPLC retention times of model peptides (Table 1); conditions: for Mean residue hydropathy of X-residue peptide / Hydropathy: Table 1; for Hydropathy: of the X-residue, from HPLC retention of KKAAAXAAAAAXAAWAAXAAAKKKK-amide peptides; for Average Hydrophobicity of Core Sequence: Table 2, calculated from Table 1 hydropathy values; for Mean Core segment Hydrophobicity: Table 3

Row | SMILES | MIC C. xerosis C875 [1] [µM] | MIC S. epidermidis C621 ([2]; C621) [µM] | MIC E. coli DC2 ([3]; Table 5A) [µM] | MIC E. coli UB1005 [4] [µM] | MIC E. coli ATCC25922 [5] [µM] | MIC P. aeruginosa ATCC27853 [6] [µM] | Human RBC (% lysis) 50 μM [7] [% lysis] | Human RBC (% lysis) 200 μM [7] [% lysis] | MIC E. coli DC2 ([3]; Table 3, Gram-negative) [µM] | Mean residue hydropathy of X-residue peptide [11] | Hydropathy [11] | Average Hydrophobicity of Core Sequence [11] | Mean Core segment Hydrophobicity [11] | MIC C498 (active/inactive) [9] | MIC C500 (active/inactive) [10] | MIC C875 (active/inactive) [1] | MIC C621 (active/inactive) [2] | further results
1 | C[C@H](NC(=O)[C@H](C)NC(=O)[C@H](Cc1ccccc1)NC(=O)[C@H](C)NC(=O)[C@H](C)NC(=O)[C@H](Cc1c[nH]c2ccccc12)NC(=O)[C@H](C)NC(=O)[C@H](C)NC(=O)[C@H](Cc1ccccc1)NC(=O)[C@H](C)NC(=O)[C@H](C)NC(=O)[C@H](CCCNC(=N)N)NC(=O)[C@H](CCCNC(=N)N)NC(=O)[C@H](CCCNC(=N)N)NC(=O)[C@H](CCCNC(=N)N)NC(=O)[C@H](CCCNC(=N)N)NC(=O)[C@@H](N)CCCNC(=N)N)C(N)=O [Peptide F17-6R, RRRRRRAAFAAWAAFAA-NH2] (H-RRRRRRAAFAAWAAFAA-NH2; N-terminus assumed) | 0.5 (≈ 1 µg/mL) | 4 (≈ 8.01 µg/mL) | 0.5 (≈ 1 µg/mL) | 1 (≈ 2 µg/mL) | 4 (≈ 8.01 µg/mL) | 8 (≈ 16 µg/mL) | 14 | 26 | – | – | – | – | – | – | – | – | – | Rabbit RBC (% lysis) 50 μM [8]: 1 % lysis; Rabbit RBC (% lysis) 200 μM [8]: 3 % lysis
2 | CC(C)C[C@H](NC(=O)[C@H](C)NC(=O)[C@H](C)NC(=O)[C@H](C)NC(=O)[C@H](CCCCN)NC(=O)[C@@H](N)CCCCN)C(=O)N[C@@H](C)C(=O)N[C@@H](C)C(=O)N[C@@H](C)C(=O)N[C@@H](C)C(=O)N[C@@H](C)C(=O)N[C@@H](CC(C)C)C(=O)N[C@@H](C)C(=O)N[C@@H](C)C(=O)N[C@@H](Cc1c[nH]c2ccccc12)C(=O)N[C@@H](C)C(=O)N[C@@H](C)C(=O)N[C@@H](CC(C)C)C(=O)N[C@@H](C)C(=O)N[C@@H](C)C(=O)N[C@@H](C)C(=O)N[C@@H](CCCCN)C(=O)N[C@@H](CCCCN)C(=O)N[C@@H](CCCCN)C(=O)N[C@@H](CCCCN)C(N)=O [Peptide L25] (H-KKAAALAAAAALAAWAALAAAKKKK-NH2; N-terminus assumed) | <0.25 | 2 (≈ 4.76 µg/mL) | – | 32 (≈ 76.1 µg/mL) | – | – | – | – | 16 (≈ 38 µg/mL) | 1.14 | 4.76 | 1.14 | 1.14 | – | – | – | – | MIC C498 ([9]; C498: , wild type strain): 6 µM (≈ 14.3 µg/mL); MIC C500 ([10]; C500: , antibiotic strain): 6 µM (≈ 14.3 µg/mL); MIC C875 [1]: 0.2 µM (≈ 0.476 µg/mL); MIC C621 ([2]; C621): 1.5 µM (≈ 3.57 µg/mL)
3 | C[C@H](NC(=O)[C@H](C)NC(=O)[C@H](C)NC(=O)[C@H](Cc1ccccc1)NC(=O)[C@H](C)NC(=O)[C@H](C)NC(=O)[C@H](Cc1c[nH]c2ccccc12)NC(=O)[C@H](C)NC(=O)[C@H](C)NC(=O)[C@H](Cc1ccccc1)NC(=O)[C@H](C)NC(=O)[C@H](C)NC(=O)[C@H](C)NC(=O)[C@H](C)NC(=O)[C@H](C)NC(=O)[C@H](Cc1ccccc1)NC(=O)[C@H](C)NC(=O)[C@H](C)NC(=O)[C@H](C)NC(=O)[C@H](CCCCN)NC(=O)[C@H](CCCCN)NC(=O)[C@H](CCCCN)NC(=O)[C@H](CCCCN)NC(=O)[C@H](CCCCN)NC(=O)[C@@H](N)CCCCN)C(N)=O [Peptide F25-6K] (H-KKKKKKAAAFAAAAAFAAWAAFAAA-NH2; N-terminus assumed) | 1 (≈ 2.48 µg/mL) | 4 (≈ 9.92 µg/mL) | 8 (≈ 19.8 µg/mL) | 16 (≈ 39.7 µg/mL) | 16 (≈ 39.7 µg/mL) | 32 (≈ 79.4 µg/mL) | 11 | 17 | – | – | – | – | – | – | – | – | – | –
4 | CSCC[C@H](NC(=O)[C@H](C)NC(=O)[C@H](C)NC(=O)[C@H](C)NC(=O)[C@H](CCCCN)NC(=O)[C@@H](N)CCCCN)C(=O)N[C@@H](C)C(=O)N[C@@H](C)C(=O)N[C@@H](C)C(=O)N[C@@H](C)C(=O)N[C@@H](C)C(=O)N[C@@H](CCSC)C(=O)N[C@@H](C)C(=O)N[C@@H](C)C(=O)N[C@@H](Cc1c[nH]c2ccccc12)C(=O)N[C@@H](C)C(=O)N[C@@H](C)C(=O)N[C@@H](CCSC)C(=O)N[C@@H](C)C(=O)N[C@@H](C)C(=O)N[C@@H](C)C(=O)N[C@@H](CCCCN)C(=O)N[C@@H](CCCCN)C(=O)N[C@@H](CCCCN)C(=O)N[C@@H](CCCCN)C(N)=O [[M25]] (H-KKAAAMAAAAAMAAWAAMAAAKKKK-NH2; N-terminus assumed) | 0.5 (≈ 1.22 µg/mL) | 16 (≈ 38.9 µg/mL) | – | >32 | – | – | – | – | 32 (≈ 77.8 µg/mL) | 0.90 | 3.23 | 0.89 | 0.90 | + | + | + | + | –
5 | CC(C)C[C@H](NC(=O)[C@H](C)NC(=O)[C@H](C)NC(=O)[C@H](C)NC(=O)[C@H](CCCCN)NC(=O)[C@@H](N)CCCCN)C(=O)N[C@@H](C)C(=O)N[C@@H](C)C(=O)N[C@@H](C)C(=O)N[C@@H](C)C(=O)N[C@@H](C)C(=O)N[C@@H](CS)C(=O)N[C@@H](C)C(=O)N[C@@H](C)C(=O)N[C@@H](Cc1c[nH]c2ccccc12)C(=O)N[C@@H](C)C(=O)N[C@@H](C)C(=O)N[C@@H](CC(C)C)C(=O)N[C@@H](C)C(=O)N[C@@H](C)C(=O)N[C@@H](C)C(=O)N[C@@H](CCCCN)C(=O)N[C@@H](CCCCN)C(=O)N[C@@H](CCCCN)C(=O)N[C@@H](CCCCN)C(N)=O [[C25]] (H-KKAAALAAAAACAAWAALAAAKKKK-NH2; N-terminus assumed) | 1 (≈ 2.37 µg/mL) | >32 | – | 16 (≈ 37.9 µg/mL) | – | – | – | – | 8 (≈ 18.9 µg/mL) | 0.78 | 2.49 | 1.02 | 1.02 | + | + | + | + | –
